Experimental data taken from patent US20260297085A1, “1 H-PYRROLO[2,3-B]PYRIDIN-4-YL]-2-OXOPYRROLIDINE-3-CARBONITRILE DERIVATIVES AS TYROSINE KINASE 2 (TYK2) INHIBITORS FOR THE TREATMENT OF INFLAMMATORY DISEASES” (BIOGEN MA INC., priority 2023, published 2026).
Counter-ions that a name gives are not always drawn.

Assays:
[1] = molecular target: T1, human TYK2 kinase domain (JH1) (Homo sapiens, UniProt P29597); experiment: JH1 biochemical assay for TYK2 (ADP-Glo kinase assay, recombinant JH1 catalytic domain, JAK3-974 peptide, 10 μM ATP)
T1 construct: recombinantly generated catalytic kinase (also known as JH1) domain of human JAK1, JAK2, JAK3 and TYK2
T1 sequence (P29597 897-1176 limits assumed): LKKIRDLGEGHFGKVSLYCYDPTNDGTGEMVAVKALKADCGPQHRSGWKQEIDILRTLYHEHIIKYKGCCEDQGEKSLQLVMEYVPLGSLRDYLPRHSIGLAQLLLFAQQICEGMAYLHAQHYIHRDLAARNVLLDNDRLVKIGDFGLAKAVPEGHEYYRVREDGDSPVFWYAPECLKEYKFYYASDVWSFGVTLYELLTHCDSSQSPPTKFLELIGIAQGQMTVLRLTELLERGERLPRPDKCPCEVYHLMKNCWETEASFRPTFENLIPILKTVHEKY
Outline: (§1)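 Reactions contain 50 μM peptide and run 100 minutes, with enzyme at 4, 0.2, 0.3 and 2 nM for JAK1, JAK2, JAK3 and TYK2. Generated ADP is read by luminescence; IC50 derives from normalized dose-response curves.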

[2] = molecular target: T2, human JAK1 kinase domain (JH1) (Homo sapiens, UniProt P23458); experiment: JH1 biochemical assay for JAK1 (ADP-Glo kinase assay, recombinant JH1 catalytic domain, JAK3-342 peptide, 35 μM ATP)
T2 construct: recombinantly generated catalytic kinase (also known as JH1) domain of human JAK1, JAK2, JAK3 and TYK2
T2 sequence (P23458 875-1153 limits assumed): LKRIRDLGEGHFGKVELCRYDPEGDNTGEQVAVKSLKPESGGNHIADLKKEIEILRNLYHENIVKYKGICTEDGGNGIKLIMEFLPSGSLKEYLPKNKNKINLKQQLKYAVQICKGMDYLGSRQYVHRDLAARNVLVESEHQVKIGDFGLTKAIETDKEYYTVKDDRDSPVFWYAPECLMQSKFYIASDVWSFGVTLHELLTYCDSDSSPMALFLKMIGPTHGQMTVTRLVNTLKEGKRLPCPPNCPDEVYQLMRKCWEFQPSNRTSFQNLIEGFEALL
Outline: as §1

[3] = molecular target: T3, human JAK2 kinase domain (JH1) (Homo sapiens, UniProt O60674); experiment: JH1 biochemical assay for JAK2 (ADP-Glo kinase assay, recombinant JH1 catalytic domain, JAK3-974 peptide, 15 μM ATP)
T3 construct: recombinantly generated catalytic kinase (also known as JH1) domain of human JAK1, JAK2, JAK3 and TYK2
T3 sequence (O60674 849-1124 limits assumed): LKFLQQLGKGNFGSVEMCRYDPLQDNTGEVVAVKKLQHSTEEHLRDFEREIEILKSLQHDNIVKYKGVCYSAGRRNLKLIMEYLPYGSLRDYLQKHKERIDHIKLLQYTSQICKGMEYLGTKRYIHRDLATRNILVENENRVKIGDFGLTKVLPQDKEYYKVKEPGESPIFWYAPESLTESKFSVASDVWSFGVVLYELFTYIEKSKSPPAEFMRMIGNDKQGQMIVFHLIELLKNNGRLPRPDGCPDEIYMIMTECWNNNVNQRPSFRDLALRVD
Outline: as §1

[4] = molecular target: T4, human JAK3 kinase domain (JH1) (Homo sapiens, UniProt P52333); experiment: JH1 biochemical assay for JAK3 (ADP-Glo kinase assay, recombinant JH1 catalytic domain, JAK3-974 peptide, 4 μM ATP)
T4 construct: recombinantly generated catalytic kinase (also known as JH1) domain of human JAK1, JAK2, JAK3 and TYK2
T4 sequence (P52333 822-1111 limits assumed): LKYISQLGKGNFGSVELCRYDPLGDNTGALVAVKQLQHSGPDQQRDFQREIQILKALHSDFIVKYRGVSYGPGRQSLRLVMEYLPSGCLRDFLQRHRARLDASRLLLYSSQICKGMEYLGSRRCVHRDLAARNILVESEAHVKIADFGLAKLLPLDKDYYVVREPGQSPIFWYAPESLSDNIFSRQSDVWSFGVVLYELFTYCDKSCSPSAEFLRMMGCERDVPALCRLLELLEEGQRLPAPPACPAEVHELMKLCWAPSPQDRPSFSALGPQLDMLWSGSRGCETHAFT
Outline: as §1

[5] = molecular target: Tyk2 kinase activity on STAT4 in NK92 cells (Homo sapiens, UniProt P29597); experiment: pSTAT4 cell assay (MSD; NK92 cells, 30 ng/mL IL2 stimulation); format: cell-based; details: 30 ng/mL IL2, 15 minutes
Sequence of Tyk2 kinase activity on STAT4 in NK92 cells (P29597 whole entry): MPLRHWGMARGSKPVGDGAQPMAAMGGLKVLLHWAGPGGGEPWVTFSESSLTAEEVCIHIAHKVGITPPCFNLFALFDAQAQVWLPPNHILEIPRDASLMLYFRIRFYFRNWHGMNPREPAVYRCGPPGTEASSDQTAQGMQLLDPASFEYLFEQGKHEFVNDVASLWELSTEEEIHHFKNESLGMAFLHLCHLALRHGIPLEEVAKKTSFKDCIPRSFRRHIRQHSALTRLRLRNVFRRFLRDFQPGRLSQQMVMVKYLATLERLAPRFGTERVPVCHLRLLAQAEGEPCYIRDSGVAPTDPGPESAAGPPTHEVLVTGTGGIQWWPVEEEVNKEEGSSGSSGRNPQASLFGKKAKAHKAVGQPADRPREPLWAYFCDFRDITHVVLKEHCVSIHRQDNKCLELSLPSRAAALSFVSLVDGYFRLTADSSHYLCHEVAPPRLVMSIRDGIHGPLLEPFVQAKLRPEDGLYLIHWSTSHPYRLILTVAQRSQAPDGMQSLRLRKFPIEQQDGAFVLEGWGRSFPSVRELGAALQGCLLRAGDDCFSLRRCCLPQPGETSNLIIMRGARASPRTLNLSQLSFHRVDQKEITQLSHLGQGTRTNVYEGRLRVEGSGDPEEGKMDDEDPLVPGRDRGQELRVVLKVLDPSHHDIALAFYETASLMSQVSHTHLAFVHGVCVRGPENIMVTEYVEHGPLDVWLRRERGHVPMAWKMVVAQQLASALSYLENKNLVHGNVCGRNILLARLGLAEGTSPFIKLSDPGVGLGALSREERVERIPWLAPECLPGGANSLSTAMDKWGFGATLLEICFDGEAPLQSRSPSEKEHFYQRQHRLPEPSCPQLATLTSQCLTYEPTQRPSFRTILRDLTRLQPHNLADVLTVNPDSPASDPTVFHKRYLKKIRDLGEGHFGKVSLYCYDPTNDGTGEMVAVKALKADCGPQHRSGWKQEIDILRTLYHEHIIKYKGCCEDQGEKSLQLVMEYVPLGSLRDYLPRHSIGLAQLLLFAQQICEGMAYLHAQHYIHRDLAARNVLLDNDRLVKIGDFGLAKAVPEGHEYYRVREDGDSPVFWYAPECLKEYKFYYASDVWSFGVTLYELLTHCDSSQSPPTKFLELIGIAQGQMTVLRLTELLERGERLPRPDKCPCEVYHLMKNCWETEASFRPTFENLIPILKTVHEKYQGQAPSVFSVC
Description: The inhibitory potency of compounds of the disclosure against the Tyk2 kinase activity on STAT4 was evaluated using an MSD-platform plate-based assay format. NK92 cells natively expressing STAT4 and Tyk2 were serum-starved to reduce background phosphorylation levels, then cells were treated compounds for 1 hr with a 10-point four-fold dilution series starting at 10 μM. Cells were then stimulated with 30 ng/mL IL2 for 15 minutes. Cells were lysed and […] levels were quantitated using an MSD plate-based assay with anti-STAT4 antibodies. The data were normalized and the percent activity versus log concentration of compound were fitted with a 4-parameter logistic model to generate to generate IC50 curves.

[6] = molecular target: JAK2 kinase activity on STAT5 in TF1 cells (Homo sapiens, UniProt O60674); experiment: pSTAT5 cell assay (MSD; TF1 cells, 30 ng/mL IL-3 stimulation); format: cell-based; details: 30 ng/mL IL-3, 15 minutes
Sequence of JAK2 kinase activity on STAT5 in TF1 cells (O60674 whole entry): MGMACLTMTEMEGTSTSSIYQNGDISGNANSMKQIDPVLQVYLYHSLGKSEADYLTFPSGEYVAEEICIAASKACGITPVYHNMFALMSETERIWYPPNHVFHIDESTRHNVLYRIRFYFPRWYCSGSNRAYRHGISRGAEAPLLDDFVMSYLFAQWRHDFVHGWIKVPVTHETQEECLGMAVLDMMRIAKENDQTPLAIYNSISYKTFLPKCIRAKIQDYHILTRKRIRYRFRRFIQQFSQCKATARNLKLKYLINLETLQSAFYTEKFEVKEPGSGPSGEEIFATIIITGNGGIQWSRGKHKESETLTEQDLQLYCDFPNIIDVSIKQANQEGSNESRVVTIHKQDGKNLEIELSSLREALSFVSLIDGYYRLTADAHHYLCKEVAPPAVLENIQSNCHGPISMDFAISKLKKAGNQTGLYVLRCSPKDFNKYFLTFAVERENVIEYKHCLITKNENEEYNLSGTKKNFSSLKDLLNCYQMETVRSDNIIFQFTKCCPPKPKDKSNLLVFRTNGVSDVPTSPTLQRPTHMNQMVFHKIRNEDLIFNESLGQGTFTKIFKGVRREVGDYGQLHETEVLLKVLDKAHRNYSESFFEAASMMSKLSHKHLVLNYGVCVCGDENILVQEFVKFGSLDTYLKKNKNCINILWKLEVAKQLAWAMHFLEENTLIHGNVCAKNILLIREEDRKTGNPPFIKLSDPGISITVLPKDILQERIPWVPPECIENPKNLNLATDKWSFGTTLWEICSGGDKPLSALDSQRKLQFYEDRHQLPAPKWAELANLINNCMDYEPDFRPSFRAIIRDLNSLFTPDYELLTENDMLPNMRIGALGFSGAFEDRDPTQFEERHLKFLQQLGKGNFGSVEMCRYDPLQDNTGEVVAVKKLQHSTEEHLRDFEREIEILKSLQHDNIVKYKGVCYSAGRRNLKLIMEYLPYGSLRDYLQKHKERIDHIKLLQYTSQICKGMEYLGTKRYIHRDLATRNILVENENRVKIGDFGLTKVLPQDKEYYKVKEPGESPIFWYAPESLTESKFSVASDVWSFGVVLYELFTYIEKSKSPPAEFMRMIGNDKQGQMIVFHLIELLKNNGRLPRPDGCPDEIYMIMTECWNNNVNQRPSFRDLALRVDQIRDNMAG
Description: The inhibitory potency of compounds of the disclosure against the JAK2 kinase activity on STAT5 was evaluated using an MSD-platform plate-based assay format. TF1 cells natively expressing STAT5 and JAK2 were serum-starved to reduce background phosphorylation levels, then cells were treated with compounds of disclosure for 1 hour with a 10-point four-fold dilution series starting at 10 μM. Cells were then stimulated with 30 ng/mL IL-3 for 15 minutes. Cells were then lysed and pSTAT5 levels were quantitated using an MSD plate-based assay with anti-STAT5 antibodies. The data were normalized and the percent activity versus log concentration of compound was fitted with a 4-parameter logistic model to generate a curve and an IC50 value.

[7] = molecular target: JAK1 kinase activity on STAT3 in TF1 cells (Homo sapiens, UniProt P23458); experiment: pSTAT3 cell assay (MSD; TF1 cells, 30 ng/mL IL-6 stimulation); format: cell-based; details: 30 ng/mL IL-6, 15 minutes
Sequence of JAK1 kinase activity on STAT3 in TF1 cells (P23458 whole entry): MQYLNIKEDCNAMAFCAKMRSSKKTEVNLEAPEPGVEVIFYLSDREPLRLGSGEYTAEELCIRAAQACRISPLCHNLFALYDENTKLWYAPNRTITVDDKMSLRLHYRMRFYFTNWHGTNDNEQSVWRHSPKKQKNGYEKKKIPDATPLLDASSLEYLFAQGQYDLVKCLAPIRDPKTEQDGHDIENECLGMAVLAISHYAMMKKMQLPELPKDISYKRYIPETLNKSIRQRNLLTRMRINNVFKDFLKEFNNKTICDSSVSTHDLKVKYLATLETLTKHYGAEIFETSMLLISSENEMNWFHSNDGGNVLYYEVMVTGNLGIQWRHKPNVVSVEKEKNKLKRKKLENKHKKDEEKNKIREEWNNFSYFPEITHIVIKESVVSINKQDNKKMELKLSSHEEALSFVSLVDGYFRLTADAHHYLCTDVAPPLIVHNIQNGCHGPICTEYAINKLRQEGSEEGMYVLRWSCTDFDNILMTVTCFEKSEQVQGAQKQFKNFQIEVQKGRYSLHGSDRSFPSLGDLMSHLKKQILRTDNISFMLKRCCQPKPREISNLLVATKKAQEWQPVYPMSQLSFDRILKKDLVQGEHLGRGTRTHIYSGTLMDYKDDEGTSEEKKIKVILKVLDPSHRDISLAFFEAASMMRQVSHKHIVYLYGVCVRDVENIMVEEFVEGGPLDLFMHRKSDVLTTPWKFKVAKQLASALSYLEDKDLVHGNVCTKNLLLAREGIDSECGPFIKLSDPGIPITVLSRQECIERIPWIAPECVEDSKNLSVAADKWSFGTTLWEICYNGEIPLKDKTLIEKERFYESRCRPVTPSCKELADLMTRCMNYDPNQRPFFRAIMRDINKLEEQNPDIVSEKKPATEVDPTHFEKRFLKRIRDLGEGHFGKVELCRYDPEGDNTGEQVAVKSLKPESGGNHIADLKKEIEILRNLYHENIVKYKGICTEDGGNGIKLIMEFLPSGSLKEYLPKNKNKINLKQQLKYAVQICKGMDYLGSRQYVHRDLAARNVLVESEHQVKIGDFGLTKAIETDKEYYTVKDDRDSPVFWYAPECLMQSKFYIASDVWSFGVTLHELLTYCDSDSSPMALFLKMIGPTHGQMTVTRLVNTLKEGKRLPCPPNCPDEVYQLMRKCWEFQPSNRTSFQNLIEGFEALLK
Description: The inhibitory potency of compounds of the disclosure against the JAK1 kinase activity on STAT3 was evaluated using an MSD-platform plate-based assay format. TF1 cells natively expressing STAT3 and JAK1 were serum-starved to reduce background phosphorylation levels, then cells were treated with compounds of the disclosure for 1 hour with a 10-point four-fold dilution series starting at 10 μM. Cells were then stimulated with 30 ng/mL interleukin 6 (IL-6) for 15 minutes. Cells were lysed and pSTAT3 levels were quantitated using an MSD plate-based assay with anti-STAT3 antibodies. The data were normalized and the percent activity versus log concentration of compound was fitted with a 4-parameter logistic model to generate IC50 curves.

SMILES	IC50 ([1]; TYK2 JH1, ADP-Glo) [µM]	IC50 ([2]; JAK1 JH1, ADP-Glo) [µM]	IC50 ([3]; JAK2 JH1, ADP-Glo) [µM]	IC50 ([4]; JAK3 JH1, ADP-Glo) [µM]	IC50 [5] [µM]	IC50 [6] [µM]	IC50 [7] [µM]	IC50 ([1]; JH1 kinase domain, ADP-Glo) [µM]	IC50 ([2]; JH1 kinase domain, ADP-Glo) [µM]	IC50 ([3]; JH1 kinase domain, ADP-Glo) [µM]	IC50 ([4]; JH1 kinase domain, ADP-Glo) [µM]
C[C@@H]1CN(c2nc(-c3ccnc(C(F)(F)F)c3)cn3nccc23)C(=O)[C@]1(C#N)C1CC1 [Example 234, (3R,4S)-3-cyclopropyl-4-methyl-2-oxo-1-(6-(2-(trifluoromethyl)pyridin-4-yl)pyrazolo[1,5-a]pyrazin-4-yl)pyrrolidine-3-carbonitrile trifluoroacetate]	0.005 to 0.02	0.1 to 1	0.1 to 1	0.1 to 1	> 0.1	> 10	> 10	–	–	–	–
C[C@@H]1CN(c2nc(-c3cnn(C(F)F)c3)cn3ncc(F)c23)C(=O)[C@]1(C#N)C1CC1 [Example 189, (3R,4S)-3-cyclopropyl-1-(6-(1-(difluoromethyl)-1H-pyrazol-4-yl)-3-fluoropyrazolo[1,5-a]pyrazin-4-yl)-4-methyl-2-oxopyrrolidine-3-carbonitrile]	–	–	–	–	0.05 to 0.1	1 to 5	1 to 5	< 0.005	< 0.1	0.1 to 1	< 0.1
C[C@@H]1CN(c2nc(-c3cnn(C4CN(C)C4)c3)cc3ncsc23)C(=O)[C@]1(C#N)C1CC1 [Example 358, (3R,4S)-3-cyclopropyl-4-methyl-1-(6-(1-(1-methylazetidin-3-yl)-1H-pyrazol-4-yl)thiazolo[5,4-c]pyridin-4-yl)-2-oxopyrrolidine-3-carbonitrile]	< 0.005	< 0.1	< 0.1	< 0.1	0.05 to 0.1	0.1 to 1	0.1 to 1	–	–	–	–
C[C@@H]1CN(c2ccnn3cc(-c4ccc(C(=O)N(C)C)cn4)cc23)C(=O)[C@]1(C#N)C1CC1 [Example 124, 6-(4-((3R,4S)-3-cyano-3-cyclopropyl-4-methyl-2-oxopyrrolidin-1-yl)pyrrolo[1,2-b]pyridazin-6-yl)-N,N-dimethylnicotinamide trifluoroacetate]	–	–	–	–	> 0.1	5 to 10	5 to 10	0.005 to 0.02	0.1 to 1	0.1 to 1	0.1 to 1
CCOCCn1cc(-c2cc3c(N4C[C@@H](C)[C@@](C#N)(C5CC5)C4=O)ccnn3c2)cn1 [Example 172, (3R,4S)-3-cyclopropyl-1-(6-(1-(2-ethoxyethyl)-1H-pyrazol-4-yl)pyrrolo[1,2-b]pyridazin-4-yl)-4-methyl-2-oxopyrrolidine-3-carbonitrile]	–	–	–	–	> 0.1	5 to 10	1 to 5	< 0.005	0.1 to 1	0.1 to 1	0.1 to 1
C[C@@H]1CN(c2ccnn3cc(-c4cnn(C5(CC#N)CC5)c4)cc23)C(=O)[C@]1(C#N)C1CC1 [Example 323]	< 0.005	< 0.1	< 0.1	< 0.1	0.05 to 0.1	1 to 5	1 to 5	–	–	–	–
CC(C)n1cc(-c2cn3ncc(F)c3c(N3C[C@@H](C)[C@@](C#N)(C4CC4)C3=O)n2)cn1 [Example 190, (3R,4S)-3-cyclopropyl-1-(3-fluoro-6-(1-isopropyl-1H-pyrazol-4-yl)pyrazolo[1,5-a]pyrazin-4-yl)-4-methyl-2-oxopyrrolidine-3-carbonitrile]	–	–	–	–	0.02 to 0.05	1 to 5	0.1 to 1	< 0.005	< 0.1	< 0.1	< 0.1
CNC(=O)c1ccc(-c2cn3nccc3c(N3C[C@@H](C)[C@@](C#N)(C4CC4)C3=O)n2)cn1 [Example 227, 5-(4-((3R,4S)-3-cyano-3-cyclopropyl-4-methyl-2-oxopyrrolidin-1-yl)pyrazolo[1,5-a]pyrazin-6-yl)-N-methylpicolinamide trifluoroacetate]	< 0.005	< 0.1	0.1 to 1	< 0.1	> 0.1	1 to 5	0.1 to 1	–	–	–	–
C[C@@H]1CN(c2ccnn3cc(-c4cnn(-c5ccncc5)c4)cc23)C(=O)[C@]1(C#N)C1CC1 [Example 160, (3R,4S)-3-cyclopropyl-4-methyl-2-oxo-1-(6-(1-(pyridin-4-yl)-1H-pyrazol-4-yl)pyrrolo[1,2-b]pyridazin-4-yl)pyrrolidine-3-carbonitrile]	–	–	–	–	0.05 to 0.1	1 to 5	1 to 5	< 0.005	0.1 to 1	0.1 to 1	0.1 to 1
C[C@@H]1CN(c2ccnn3cc(-c4cnc5[nH]ncc5c4)cc23)C(=O)[C@]1(C#N)C1CC1 [Example 75, (3R,4S)-1-(6-(1H-pyrazolo[3,4-b]pyridin-5-yl)pyrrolo[1,2-b]pyridazin-4-yl)-3-cyclopropyl-4-methyl-2-oxopyrrolidine-3-carbonitrile]	–	–	–	–	0.05 to 0.1	> 10	1 to 5	< 0.005	< 0.1	0.1 to 1	0.1 to 1
C[C@@H]1CN(c2ccnn3cc(-c4cnn(C56CC(C#N)(C5)C6)c4)cc23)C(=O)[C@]1(C#N)C1CC1 [Example 320, (3R,4S)-1-(6-(1-(3-cyanobicyclo[1.1.1]pentan-1-yl)-1H-pyrazol-4-yl)pyrrolo[1,2-b]pyridazin-4-yl)-3-cyclopropyl-4-methyl-2-oxopyrrolidine-3-carbonitrile]	< 0.005	0.1 to 1	< 0.1	< 0.1	0.05 to 0.1	1 to 5	1 to 5	–	–	–	–
Cc1cc(-c2cc3c(N4C[C@@H](C)[C@@](C#N)(C5CC5)C4=O)ccnn3c2)ccn1 [Example 77, (3R,4S)-3-cyclopropyl-4-methyl-1-(6-(2-methylpyridin-4-yl)pyrrolo[1,2-b]pyridazin-4-yl)-2-oxopyrrolidine-3-carbonitrile]	–	–	–	–	0.05 to 0.1	1 to 5	0.1 to 1	< 0.005	< 0.1	0.1 to 1	0.1 to 1
C[C@@H]1CN(c2nc(-c3ccn(C)c(=O)c3)cn3nccc23)C(=O)[C@]1(C#N)C1CC1 [Example 261, (3R,4S)-3-cyclopropyl-4-methyl-1-(6-(1-methyl-2-oxo-1,2-dihydropyridin-4-yl)pyrazolo[1,5-a]pyrazin-4-yl)-2-oxopyrrolidine-3-carbonitrile trifluoroacetate]	< 0.005	0.1 to 1	0.1 to 1	< 0.1	> 0.1	1 to 5	1 to 5	–	–	–	–
C[C@@H]1CN(c2nc(-c3cnn(-c4cccnc4)c3)cn3nccc23)C(=O)[C@]1(C#N)C1CC1 [Example 294, (3R,4S)-3-cyclopropyl-4-methyl-2-oxo-1-(6-(1-(pyridin-3-yl)-1H-pyrazol-4-yl)pyrazolo[1,5-a]pyrazin-4-yl)pyrrolidine-3-carbonitrile]	< 0.005	< 0.1	< 0.1	< 0.1	0.02 to 0.05	0.1 to 1	0.1 to 1	–	–	–	–
C[C@@H]1CN(c2nc(-c3cnn(C4CCOCC4)c3)cn3ncc(F)c23)C(=O)[C@]1(C#N)C1CC1 [Example 218, (3R,4S)-3-cyclopropyl-1-(3-fluoro-6-(1-(tetrahydro-2H-pyran-4-yl)-1H-pyrazol-4-yl)pyrazolo[1,5-a]pyrazin-4-yl)-4-methyl-2-oxopyrrolidine-3-carbonitrile]	< 0.005	< 0.1	< 0.1	< 0.1	0.05 to 0.1	0.1 to 1	0.1 to 1	–	–	–	–
